{"source": "patent US20020032228A1", "about": "(priority 2000, published 2002)", "key": {"[1]": {"tested_on": "mouse intestinal loops challenged with cholera toxin", "assay_type": "in vivo"}, "Xenopus laevis epidermis": {"tested_on": "Xenopus laevis epidermis", "assay_type": "cell-based"}, "CHO cells": {"tested_on": "CHO cells", "assay_type": "cell-based, Chinese hamster"}, "[2]": {"tested_on": "mouse intestinal loops challenged with cholera toxin", "assay_type": "in vivo", "details": "6 hour"}, "[3]": {"details": "168 h, pH 5.5"}, "physchem": {"assay": "physchem", "details": "pH 5.5"}, "Adenylate Cyclase": {"target": "Adenylate Cyclase (Bordetella pertussis, UniProt P0DKX7)", "sequence (P0DKX7 whole entry, looked up)": "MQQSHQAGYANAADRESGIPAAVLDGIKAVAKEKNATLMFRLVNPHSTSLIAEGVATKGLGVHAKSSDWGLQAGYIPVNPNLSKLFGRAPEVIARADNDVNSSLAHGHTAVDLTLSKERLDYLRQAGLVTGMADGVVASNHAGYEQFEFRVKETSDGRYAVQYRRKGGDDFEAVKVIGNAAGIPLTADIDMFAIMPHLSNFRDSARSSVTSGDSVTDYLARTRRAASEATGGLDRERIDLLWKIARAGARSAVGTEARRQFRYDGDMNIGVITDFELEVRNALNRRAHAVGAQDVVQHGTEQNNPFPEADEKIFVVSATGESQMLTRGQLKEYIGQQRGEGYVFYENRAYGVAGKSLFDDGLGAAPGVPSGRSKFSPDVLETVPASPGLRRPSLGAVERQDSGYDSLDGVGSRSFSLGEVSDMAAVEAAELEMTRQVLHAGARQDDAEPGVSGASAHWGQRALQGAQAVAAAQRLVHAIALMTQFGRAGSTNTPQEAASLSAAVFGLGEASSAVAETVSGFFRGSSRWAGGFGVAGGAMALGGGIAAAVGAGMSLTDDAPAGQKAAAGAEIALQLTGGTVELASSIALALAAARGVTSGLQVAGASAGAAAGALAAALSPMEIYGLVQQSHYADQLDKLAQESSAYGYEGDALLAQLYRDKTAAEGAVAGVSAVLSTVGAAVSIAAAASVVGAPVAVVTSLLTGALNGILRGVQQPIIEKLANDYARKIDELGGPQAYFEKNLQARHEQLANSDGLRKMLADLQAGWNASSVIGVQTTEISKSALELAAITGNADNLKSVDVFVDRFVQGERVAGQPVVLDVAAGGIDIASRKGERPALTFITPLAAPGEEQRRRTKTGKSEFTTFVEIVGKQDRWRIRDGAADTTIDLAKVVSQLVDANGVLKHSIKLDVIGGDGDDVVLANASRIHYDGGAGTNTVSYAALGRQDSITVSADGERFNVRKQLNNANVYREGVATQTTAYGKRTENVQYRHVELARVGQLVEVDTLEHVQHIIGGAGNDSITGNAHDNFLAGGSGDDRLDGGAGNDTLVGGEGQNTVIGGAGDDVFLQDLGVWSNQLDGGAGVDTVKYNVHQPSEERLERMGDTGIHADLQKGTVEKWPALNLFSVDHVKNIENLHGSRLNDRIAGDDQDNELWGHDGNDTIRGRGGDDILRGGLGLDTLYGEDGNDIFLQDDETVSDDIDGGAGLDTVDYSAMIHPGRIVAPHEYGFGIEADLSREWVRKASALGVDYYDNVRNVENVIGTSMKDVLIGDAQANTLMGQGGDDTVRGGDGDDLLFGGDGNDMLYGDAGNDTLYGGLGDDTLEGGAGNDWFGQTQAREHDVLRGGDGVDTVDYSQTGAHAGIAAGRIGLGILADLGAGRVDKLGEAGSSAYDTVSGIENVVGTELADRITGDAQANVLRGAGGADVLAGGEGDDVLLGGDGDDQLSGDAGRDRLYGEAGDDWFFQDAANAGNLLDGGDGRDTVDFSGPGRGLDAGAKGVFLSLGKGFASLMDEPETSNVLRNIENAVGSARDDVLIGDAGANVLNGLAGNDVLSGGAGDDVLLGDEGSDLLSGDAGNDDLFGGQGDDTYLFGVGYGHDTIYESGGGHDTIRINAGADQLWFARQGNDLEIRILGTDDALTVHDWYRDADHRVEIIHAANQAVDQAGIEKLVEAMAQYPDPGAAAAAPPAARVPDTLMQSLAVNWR", "assay": "biochemical", "assay_type": "biochemical"}, "[4]": {"details": "enzyme 4.6 nmoles, imidazole 2.7 mmoles, PGE2-Histidine adduct 52 μmoles, celecoxib 0.52 mmoles"}}, "note": "Entries after “also recorded” stand apart in the source; their conditions may differ. Where two headings read alike, the source gives them in different places.", "data": [{"compound": "N[C@@H](Cc1c[nH]cn1)C(=O)O", "note": "[L-histidine]", "values": [{"measurement": "fluid accumulation in mouse intestinal loops challenged with cholera toxin", "setting": "[1]; 6 hours", "result": "as the dose of L-histidine was increased, the amount of fluid accumulation decreased; also recorded: accumulated significantly less fluid"}, {"measurement": "reduction of fluid accumulation, statistical significance", "setting": "[1]; 6 hours", "result": "statistical significance (P<0.05)"}, {"measurement": "Difference in ISC between PGE2 and PGE2+L-histidine", "setting": "Xenopus laevis epidermis", "result": "78±21", "unit": "%"}, {"measurement": "ISC, % of control", "setting": "Xenopus laevis epidermis", "result": "30±9 % of control"}, {"measurement": "basal and PGE2-induced sodium transport", "setting": "Xenopus laevis epidermis", "result": "reduced both basal and PGE2-induced sodium transport"}, {"measurement": "PGE2- and CT-stimulated cAMP formation in CHO cells", "setting": "CHO cells", "result": "reduced the capacity of both PGE2 and CT to stimulate cAMP formation"}]}, {"compound": "CC(=O)N[C@@H](CS)C(=O)O", "note": "[NAC, N-acetyl-L-cysteine, reference compound]", "values": [{"measurement": "intestinal fluid accumulation", "setting": "[1]; mouse, in vivo", "result": "blocked all intestinal fluid accumulation"}, {"measurement": "protection against CT-induced fluid secretion in small intestinal loops", "setting": "[1]; mouse, in vivo, ip, pH 7", "result": "no protective effect"}]}, {"compound": "CCCCC[C@H](O)/C=C/[C@H]1C=CC(=O)[C@@H]1C/C=C\\CCCC(=O)O", "note": "[PGA2, reference compound]", "values": [{"measurement": "CT-induced fluid accumulation in murine intestinal loops", "setting": "[1]; mouse, in vivo", "result": "reduce CT-induced fluid accumulation in murine intestinal loops with lower potency"}]}, {"compound": "CCCCC[C@H](O)/C=C/C1=C(C/C=C\\CCCC(=O)O)C(=O)CC1", "note": "[PGB2, reference compound]", "values": [{"measurement": "CT-induced fluid accumulation in murine intestinal loops", "setting": "[1]; mouse, in vivo", "result": "reduce CT-induced fluid accumulation in murine intestinal loops with lower potency"}]}, {"compound": "CCCCCC(O)/C=C/[C@H]1C(O)CC(=O)[C@H]1C/C=C\\CCCC(=O)O", "note": "(some centres unmarked) [PGE2, reference compound]", "values": [{"measurement": "increase of steady-state Na+-dependent short circuit current (ISC)", "setting": "Xenopus laevis epidermis", "result": 14, "unit": "%"}, {"measurement": "maximum PGE2-induced change in ISC", "setting": "Xenopus laevis epidermis; n=5", "result": "18±3", "unit": "%"}]}, {"compound": "CCCCCC(O)/C=C/[C@H]1C(n2ccnc2)CC(=O)[C@H]1C/C=C\\CCCC(=O)O", "note": "(some centres unmarked) [PGE2-imidazole, 11-deoxy-11-imidazolyl-PGE2]", "values": [{"measurement": "CT-induced fluid accumulation", "setting": "[1]; 6 hour", "result": "significantly reduced"}, {"measurement": "fluid loss following CT challenge", "setting": "[1]; mouse, in vivo", "result": "completely blocked"}, {"measurement": "inhibition of the CT fluid response", "setting": "[1]; mouse, in vivo", "result": "virtually complete inhibition"}, {"measurement": "inhibition of CT-induced cAMP formation", "setting": "CHO cells", "result": "significant inhibition; also recorded: reduces cAMP levels"}, {"measurement": "reduction of cAMP levels", "setting": "CHO cells; 0.5 μg/ml", "result": "approximately 50%"}, {"measurement": "cAMP levels in the intestinal loop fluids", "setting": "[2]", "result": "markedly reduced"}, {"measurement": "adduct remaining", "setting": "[3]", "result": 10, "unit": "%"}, {"measurement": "half-life", "setting": "physchem", "result": "~60", "unit": "h"}]}, {"compound": "COc1ccc(-n2nc(C(F)(F)F)cc2-c2ccc(Cl)cc2)cc1", "note": "[SC560, reference compound]", "values": [{"measurement": "cholera toxin-induced fluid secretion", "setting": "[1]; mouse, in vivo, sc", "result": "inhibits cholera toxin-induced fluid secretion"}]}, {"compound": "Cc1ccc(-c2cc(C(F)(F)F)nn2-c2ccc(S(N)(=O)=O)cc2)cc1", "note": "[celecoxib, reference compound]", "values": [{"measurement": "CT-induced fluid accumulation in murine intestinal loops", "setting": "[1]; 6 hours", "result": "significantly reduced"}, {"measurement": "IC50", "setting": "Adenylate Cyclase", "result": 20, "unit": "µM"}, {"measurement": "inhibition of adenylate cyclase enzyme activity (FIG. 12)", "setting": "Adenylate Cyclase; [4]", "result": "inhibit adenylate cyclase enzyme activity"}]}, {"compound": "c1c[nH]cn1", "note": "[imidazole]", "values": [{"measurement": "IC50", "setting": "Adenylate Cyclase", "result": 1570, "unit": "µM"}, {"measurement": "inhibition of adenylate cyclase enzyme activity (FIG. 12)", "setting": "Adenylate Cyclase; [4]", "result": "inhibit adenylate cyclase enzyme activity"}, {"measurement": "Ratio Enzyme:Drug, molar concentration required to inhibit Adenylate Cyclase", "setting": "Adenylate Cyclase; enzyme 0.46 nm", "result": "0.46 nm:1.57 mm"}]}, {"compound": "CS(=O)(=O)c1ccc(C2=C(c3ccccc3)C(=O)OC2)cc1", "note": "[rofecoxib, reference compound]", "values": [{"measurement": "cholera toxin-induced secretion", "setting": "[1]; mouse, in vivo", "result": "does not inhibit cholera toxin-induced secretion"}, {"measurement": "inhibition of adenylate cyclase enzyme activity (FIG. 12)", "setting": "Adenylate Cyclase; [4]", "result": "absence of adenylate cyclase inhibition"}]}, {"compound": "prostaglandin E2-histidine [PGE2-histidine]", "values": [{"measurement": "inhibition of the CT fluid response", "setting": "[1]; mouse, in vivo", "result": "virtually complete inhibition"}, {"measurement": "inhibition of adenylate cyclase enzyme activity (FIG. 12)", "setting": "Adenylate Cyclase", "result": "inhibit adenylate cyclase enzyme activity"}, {"measurement": "IC50", "setting": "Adenylate Cyclase; read-out: IC50 dose inhibiting 50% of the enzyme activity", "result": 21.5, "unit": "µM"}]}]}
